{
  "source": "patent US11939307B2",
  "about": "“Phenylmethyl-piperazine derivatives and antiviral uses thereof” (INSTITUTE OF MEDICINAL BIOTECHNOLOGY, CHINESE ACADEMY OF …, priority 2019, dated 2024)",
  "data": [
    {"tested_on": "HCV", "experiment": "Assay of anti-HCV activity in HCV-infected Huh7.5 cells (intracellular HCV RNA by one-step quantitative RT-PCR)", "type": "cell-based", "settings": "Hepatitis C virus; compound at 1 μM; Huh7.5 cells infected with HCV; 96 hrs; intracellular HCV RNA vs viral control; read-out: inhibitory activities (inhibitory levels of the compounds against HCV replication)", "method": "100 μL Huh7.5 cells were seeded at a density of 1×10^5/mL in a 96-well cell culture plate and incubated in an incubator at 37° C., 5% CO2 and saturated humidity for 6 hrs. Then, while infecting Huh7.5 cells with viral solution containing HCV virus particles, the compounds of the present invention (including all specific compounds listed herein) were added at a concentration of 1 μM, respectively. After continuing incubation for 96 hrs, the total intracellular RNA was extracted separately, and the content of intracellular HCV RNA was measured by one-step quantitative RT-PCR, compared with the RNA level of the viral control, and the inhibition rate of the compounds against HCV was calculated.", "units": {"inhibition at 1 µM": "%"}, "values": [
      {"smiles": "CC(c1ccc(Br)cc1)N1CCN(Cc2cc(N3CCCN(C)CC3)ccc2C(F)(F)F)CC1", "note": "(centres unmarked) [Compound 1, 1-(3-((4-(1-(4-bromophenyl)ethyl)piperazin-1-yl)methyl)-4-(trifluoromethyl)phenyl)-4-methyl-1,4-diazepane]", "inhibition at 1 µM": "> 75"},
      {"smiles": "CN1CCCN(c2ccc(C(F)(F)F)c(CN3CCN(Cc4ccc(Cl)cc4)CC3)c2)CC1", "note": "[Compound 2, 1-(3-((4-(4-chlorobenzyl)piperazin-1-yl)methyl)-4-(trifluoromethyl)phenyl)-4-methyl-1,4-diazepane]", "inhibition at 1 µM": "> 75"},
      {"smiles": "CC(c1ccc(F)c(Cl)c1)N1CCN(Cc2cc(N3CCCN(C)CC3)ccc2C(F)(F)F)CC1", "note": "(centres unmarked) [Compound 3, 1-(3-((4-(1-(3-chloro-4-fluorophenyl)ethyl)piperazin-1-yl)methyl)-4-(trifluoromethyl)phenyl)-4-methyl-1,4-diazepane]", "inhibition at 1 µM": "> 75"},
      {"smiles": "Cc1cc(CN2CCN(Cc3cc(N4CCCN(C)CC4)ccc3C(F)(F)F)CC2)ccc1Cl", "note": "[Compound 4, 1-(3-((4-(4-chloro-3-methylbenzyl)piperazin-1-yl)methyl)-4-(trifluoromethyl)phenyl)-4-methyl-1,4-diazepane]", "inhibition at 1 µM": "> 75"},
      {"smiles": "CCCC(c1ccc(OC)cc1)N1CCN(Cc2cc(N3CCCN(C)CC3)ccc2C(F)(F)F)CC1", "note": "(centres unmarked) [Compound 5, 1-(3-((4-(1-(4-methoxyphenyl)butyl)piperazin-1-yl)methyl)-4-(trifluoromethyl)phenyl)-4-methyl-1,4-diazepane]", "inhibition at 1 µM": "> 75"},
      {"smiles": "CN1CCN(c2ccc(C(F)(F)F)c(CN3CCN(Cc4ccc(Cl)c(Cl)c4)CC3)c2)CC1", "note": "[Compound 6, 1-(3,4-dichlorobenzyl)-4-(5-(4-methylpiperazin-1-yl)-2-(trifluoromethyl)benzyl)piperazine]", "inhibition at 1 µM": "> 75"},
      {"smiles": "CN1CCCN(c2ccc(C(F)(F)F)c(CN3CCC(Cc4ccc(Cl)cc4)CC3)c2)CC1", "note": "[Compound 7, 1-(3-((4-(4-chlorobenzyl)piperidin-1-yl)methyl)-4-(trifluoromethyl)phenyl)-4-methyl-1,4-diazepane]", "inhibition at 1 µM": "50 to 75"},
      {"smiles": "CCC(c1ccc(Br)cc1)N1CCN(Cc2cc(N(C)CCN(C)C)ccc2C(F)(F)F)CC1", "note": "(centres unmarked) [Compound 8, N^1-(3-((4-(1-(4-bromophenyl)propyl)piperazin-1-yl)methyl)-4-(trifluoromethyl)phenyl)-N^1,N^2,N^2-trimethylethan-1,2-diamine]", "inhibition at 1 µM": "> 75"},
      {"smiles": "CC(c1ccc(Cl)cc1)N1CCN(Cc2cc(N(C)CCN(C)C)ccc2C(F)(F)F)CC1", "note": "(centres unmarked) [Compound 9, N^1-(3-((4-(1-(4-chlorophenyl)ethyl)piperazin-1-yl)methyl)-4-(trifluoromethyl)phenyl)-N^1,N^2,N^2-trimethylethan-1,2-diamine]", "inhibition at 1 µM": "> 75"},
      {"smiles": "Cc1ccc(CN2CCN(Cc3cc(N(C)CCN(C)C)ccc3C(F)(F)F)CC2)cc1", "note": "[Compound 10, N^1,N^1,N^2-trimethyl-N^2-(3-((4-(4-methylbenzyl)piperazin-1-yl)methyl)-4-(trifluoromethyl)phenyl)ethan-1,2-diamine]", "inhibition at 1 µM": "50 to 75"},
      {"smiles": "CCN1CCN(c2ccc(C#N)c(CN3CCN(Cc4ccc(Cl)c(C)c4)CC3)c2)CC1", "note": "[Compound 11, 2-((4-(4-chloro-3-methylbenzyl)piperazin-1-yl)methyl)-4-(4-ethylpiperazin-1-yl)benzonitrile]", "inhibition at 1 µM": "50 to 75"},
      {"smiles": "N#Cc1ccc(N2CCN(C3CC3)CC2)cc1CN1CCN(Cc2ccc(Cl)cc2)CC1", "note": "[Compound 12, 2-((4-(4-chlorobenzyl)piperazin-1-yl)methyl)-4-(4-cyclopropylpiperazin-1-yl)benzonitrile]", "inhibition at 1 µM": "50 to 75"},
      {"smiles": "CCN(C)CCN(C)c1ccc(C#N)c(CN2CCN(C(C)c3ccc(Cl)cc3)CC2)c1", "note": "(centres unmarked) [Compound 13, 2-((4-(1-(4-chlorophenyl)ethyl)piperazin-1-yl)methyl)-4-((2-(ethyl(methyl)amino)ethyl)(methyl)amino)benzonitrile]", "inhibition at 1 µM": "> 75"},
      {"smiles": "CC(c1ccccc1)N1CCN(Cc2cc(N3CCCC(N(C)C)C3)ccc2C#N)CC1", "note": "(centres unmarked) [Compound 14, 4-(3-(dimethylamino)piperidin-1-yl)-2-((4-(1-phenylethyl)piperazin-1-yl)methyl)benzonitrile]", "inhibition at 1 µM": "50 to 75"},
      {"smiles": "CC(c1ccc(C(F)(F)F)cc1)N1CCN(Cc2cc(N(C)CCN(C)C)ccc2C#N)CC1", "note": "(centres unmarked) [Compound 15, 4-((2-(dimethylamino)ethyl)(methyl)amino)-2-((4-(1-(4-(trifluoromethyl)phenyl)ethyl)piperazin-1-yl)methyl)benzonitrile]", "inhibition at 1 µM": "> 75"},
      {"smiles": "CC(C)C(c1ccc(Cl)cc1)N1CCN(Cc2cc(N(C)CCN3CCCC3)ccc2C#N)CC1", "note": "(centres unmarked) [Compound 16, 2-((4-(1-(4-chlorophenyl)-2-methylpropyl)piperazin-1-yl)methyl)-4-(methyl(2-(pyrrolidin-1-yl)ethyl)amino)benzonitrile]", "inhibition at 1 µM": "> 75"},
      {"smiles": "CCN(CC)CCN(C)c1ccc(C#N)c(CN2CCN(Cc3ccc(F)c(Cl)c3)CC2)c1", "note": "[Compound 17, 2-((4-(3-chloro-4-fluorobenzyl)piperazin-1-yl)methyl)-4-((2-(diethylamino)ethyl)(methyl)amino)benzonitrile]", "inhibition at 1 µM": "> 75"},
      {"smiles": "N#Cc1ccc(NCCCn2cccc2)cc1CN1CCN(Cc2ccc(Cl)c(Cl)c2)CC1", "note": "[Compound 18, 4-((3-(1H-pyrrol-1-yl)propyl)amino)-2-((4-(3,4-dichlorobenzyl)piperazin-1-yl)methyl)benzonitrile]", "inhibition at 1 µM": "> 75"},
      {"smiles": "CN(C)CCN(C)c1ccc(C(F)(F)F)c(CN2CCN(c3ccc(Cl)cc3)CC2)c1", "note": "[Compound 19, N^1-(3-((4-(4-chlorophenyl)piperazin-1-yl)methyl)-4-(trifluoromethyl)phenyl)-N^1,N^2,N^2-trimethylethan-1,2-diamine]", "inhibition at 1 µM": "> 75"},
      {"smiles": "CN(C)CCN(C)c1ccc(C(F)(F)F)c(CN2CCN(c3ccc(Br)cc3)CC2)c1", "note": "[Compound 20, N^1-(3-((4-(4-bromophenyl)piperazin-1-yl)methyl)-4-(trifluoromethyl)phenyl)-N^1,N^2,N^2-trimethylethan-1,2-diamine]", "inhibition at 1 µM": "> 75"},
      {"smiles": "CN(CC1CCCCN1C)c1ccc(C(F)(F)F)c(CN2CCN(c3ccc(Cl)cc3)CC2)c1", "note": "(centres unmarked) [Compound 21, 3-((4-(4-chlorophenyl)piperazin-1-yl)methyl)-N-methyl-N-((1-methylpiperidin-2-yl)methyl)-4-(trifluoromethyl)aniline]", "inhibition at 1 µM": "> 75"},
      {"smiles": "CC1CN(c2ccc(Cl)cc2)CCN1Cc1cc(N2CCCN(C)CC2)ccc1C(F)(F)F", "note": "(centres unmarked) [Compound 22, 1-(3-((4-(4-chlorophenyl)-2-methylpiperazin-1-yl)methyl)-4-(trifluoromethyl)phenyl)-4-methyl-1,4-diazepane]", "inhibition at 1 µM": "> 75"},
      {"smiles": "CN1CCCN(c2ccc(C(F)(F)F)c(CN3CCN(c4ccc(Cl)cc4)CC3)c2)CC1", "note": "[Compound 23, 1-(3-((4-(4-chlorophenyl)piperazin-1-yl)methyl)-4-(trifluoromethyl)phenyl)-4-methyl-1,4-diazepane]", "inhibition at 1 µM": "> 75"},
      {"smiles": "CN(CC1CCCN1C)c1ccc(C(F)(F)F)c(CN2CCN(c3ccc(Br)cc3)CC2)c1", "note": "(centres unmarked) [Compound 24, 3-((4-(4-bromophenyl)piperazin-1-yl)methyl)-N-methyl-N-((1-methylpyrrolidin-2-yl)methyl)-4-(trifluoromethyl)aniline]", "inhibition at 1 µM": "> 75"},
      {"smiles": "CCN1CCCC1CN(C)c1ccc(C(F)(F)F)c(CN2CCN(c3ccc(Cl)cc3)CC2)c1", "note": "(centres unmarked) [Compound 25, 3-((4-(4-chlorophenyl)piperazin-1-yl)methyl)-N-((1-ethylpyrrolidin-2-yl)methyl)-N-methyl-4-(trifluoromethyl)aniline]", "inhibition at 1 µM": "> 75"},
      {"smiles": "CN(C)CCN(C)c1ccc(C(F)(F)F)c(CN2CCN(c3ccc(Br)c(Cl)c3)CC2)c1", "note": "[Compound 26, N^1-(3-((4-(4-bromo-3-chlorophenyl)piperazin-1-yl)methyl)-4-(trifluoromethyl)phenyl)-N^1,N^2,N^2-trimethylethan-1,2-diamine]", "inhibition at 1 µM": "> 75"},
      {"smiles": "CN(C)C1CCN(c2ccc(C(F)(F)F)c(CN3CCN(c4ccc(Cl)cc4)CC3)c2)CC1", "note": "[Compound 27, 1-(3-((4-(4-chlorophenyl)piperazin-1-yl)methyl)-4-(trifluoromethyl)phenyl)-N,N-dimethylpiperidin-4-amine]", "inhibition at 1 µM": "> 75"},
      {"smiles": "FC(F)(F)c1ccc(N2CCC(N3CCCC3)CC2)cc1CN1CCN(c2ccc(Cl)cc2)CC1", "note": "[Compound 28, 1-(4-chlorophenyl)-4-(5-(4-(pyrrolidin-1-yl)piperidin-1-yl)-2-(trifluoromethyl)benzyl)piperazine]", "inhibition at 1 µM": "> 75"},
      {"smiles": "CN(C)C1CCN(c2ccc(C(F)(F)F)c(CN3CCN(c4ccc(Cl)cc4)CC3)c2)C1", "note": "(centres unmarked) [Compound 29, 1-(3-((4-(4-chlorophenyl)piperazin-1-yl)methyl)-4-(trifluoromethyl)phenyl)-N,N-dimethylpyrrolidin-3-amine]", "inhibition at 1 µM": "> 75"},
      {"smiles": "CN1CCN(c2ccc(C(F)(F)F)c(CN3CCN(c4ccc(Cl)cc4)CC3)c2)CC1", "note": "[Compound 30, 1-(4-chlorophenyl)-4-(5-(4-methylpiperazin-1-yl)-2-(trifluoromethyl)benzyl)piperazine]", "inhibition at 1 µM": "> 75"},
      {"smiles": "CC1CN(c2ccc(Cl)cc2)CCN1Cc1cc(N(C)CN2CCCCC2)ccc1C(F)(F)F", "note": "(centres unmarked) [Compound 31, 3-((4-(4-chlorophenyl)-2-methylpiperazin-1-yl)methyl)-N-methyl-N-(piperidin-1-ylmethyl)-4-(trifluoromethyl)aniline]", "inhibition at 1 µM": "> 75"},
      {"smiles": "CC1CN(c2ccc(Cl)c(C(F)(F)F)c2)CCN1Cc1cc(N2CCCN(C)CC2)ccc1C(F)(F)F", "note": "(centres unmarked) [Compound 32, 1-(3-((4-(4-chloro-3-(trifluoromethyl)phenyl)-2-methylpiperazin-1-yl)methyl)-4-(trifluoromethyl)phenyl)-4-methyl-1,4-diazepane]", "inhibition at 1 µM": "> 75"}
    ]}
  ]
}
